Results on three molecules are retold here after patent US12208110B2 (priority 2020, dated 2025).

A short description of data set [1]: MT4 cytotoxicity analysis (CellTiter-Glo). Type of data set: cell-based. The settings on record: human, MT4 CC50 (nM). The gist of the method: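 MT-4 cells were exposed in quadruplicate to 3-fold serial compound dilutions (DMSO stocks 2.5 uM to 10 mM) for five days at 37 °C. Viability was read by CellTiter-Glo luminescence.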
(ATP-based viability assays read luminescence as a measure of living cells.)

Data set [2] has as its system RSV-Fluc (Recombinant Respiratory Syncytial virus strain A2 containing the firefly luciferase reporter). Briefly: microbe, parasite or virus in culture. Type of data set: cell-based. The settings on record: human respiratory syncytial virus, NHBE, 72 h, read-out: RSV-Fluc EC50 (nM, NHBE).
On the set-up of data set [3]: species or system Sprague-Dawley (SD) rats. Particulars: male, Sprague-Dawley, rat, in vivo, po, 10 mg/kg. As for the experimental part: Example 80: Rat Lung Phosphate (Monophosphate, Diphosphate and Triphosphate) Data with Exemplary Compounds
Measurement of GS-441524 (compound A below) and its phosphorylated metabolites (compounds B, C, and D below) in lung tissues was performed according to the following protocol.
The concentrations of GS-441524 (A) and its phosphorylated metabolites (B, C, and D) were determined in Sprague-Dawley (SD) rats following oral gavage administration of the test compounds. The in-life phase of studies was conducted at Covance Laboratories (Madison, WI). Animals were housed and handled in accordance with the Guide for the Care and Use of Laboratory Animals, Institute of Laboratory Animal Resources. The protocols were reviewed and approved by the Institutional Animal Care and Use Committees (IACUC). Male SD rats weighing approximately 0.3 kg were used for in-life portion of the studies. The animals were fasted overnight prior to the test compound administration and up to 4 hours post-dose. The animals were administered with the test compound at 5, 8, 10 or 20 mg/kg via oral gavage (3 rats per group). The aqueous formulation contains ethanol, dimethyl sulfoxide, Kolliphor HS-15, Labrasol, and propylene glycol. Approximately 0.5 grams of lung tissue samples were collected from each animal and analyzed by LC/MS/MS for determination of the concentrations of GS-441524 and its phosphorylated metabolites. For LC-MS/MS analysis, tissue samples were homogenized and extracted with 4-fold volume of 70% methanol containing 0.1% potassium hydroxide, 67 mM ethylenediamine tetraacetic acid, and internal standard. Approximately 200 μL aliquot of the homogenate was filtered using a 96-well filter plate (0.2 μm polypropylene; Agilent Captiva, Santa Clara, CA). The filtrate was evaporated to dryness and reconstituted with equal volume of 1 mM ammonium phosphate buffer (pH 7). The samples were then analyzed on a Sciex 6500+ LC-MS/MS instrument (Redwood City, CA). Analytes were eluted on a […] 50×2.0 mm Phenomenex Luna C18 HST column (Torrance, CA) using mobile phases containing 3 mM ammonium formate and 10 mM dimethylhexylamine and a linear gradient from 9% to 50% acetonitrile at a flow rate of 360 μL/min. Data acquisition and processing were accomplished using Sciex Analyst® Software. Total summed levels of GS-441524 phosphorylate metabolites (B+C+D) in lung tissues were generated from the sum of GS-441524 mono-, di- and tri-phosphate (B, C, and D respectively).

The next data set relates to SARS-CoV-2. Briefly: microbe, parasite or virus in culture. The settings on record: Severe acute respiratory syndrome coronavirus 2, 48 h. Type of data set: cell-based.
The nature of another data set: in vitro. Format: cell-based. Particulars: human. The protocol: Example 78: A549 Cytotoxicity Analysis
The cytotoxicity of compounds is determined in A549 cells in the following manner. Compounds (40 nL) are spotted onto 384-well Grenier plates prior to seeding 5000 A549 cells/well in a volume of 40 μL culture medium. The plates are incubated at 37° C. for 48 hours with 5% CO2. On day 2, 40 μL of CellTiter-Glo (Promega) is added and mixed 5 times. Plates are read for luminescence on an Envision (PerkinElmer) and the CC50 (compound concentration for reducing 50% of luminescence signal as a measure of cell viability) are calculated using a nonlinear regression model (four parameters). Two experiments are performed with technical duplicates.

The CC50 is the concentration at which the toxic effect on the cells reaches its halfway point. Read a high CC50 as lower toxicity to the cells. Broadly, the EC50 is the midpoint of the concentration-response curve. In data set [1], `CCCCCCCCCCCCCCCCCCOC[C@H](COP(=O)(O)OC[C@H]1O[C@@](C#N)(c2ccc3c(N)ncnn23)[C@H](O)[C@@H]1O)N(C)Cc1ccc(F)c(Cl)c1` [Example 3, ((2R,3S,4R,5R)-5-(4-aminopyrrolo[2,1-f][1,2,4]triazin-7-yl)-5-cyano-3,4-dihydroxytetrahydrofuran-2-yl)methyl ((R)-2-((3-chloro-4-fluorobenzyl)(methyl)amino)-3-(octadecyloxy)propyl) hydrogen phosphate] came in with a CC50 at 5 days of 5700 nM. The 50% effective concentration (EC50) in data set [2] turned out to be 350 nM; with SARS-CoV-2, 2300 nM. For the same molecule, the “Total Lung Phosphate Level (monophosphate + diphosphate + triphosphate, nmol/g)” value (“Total Lung Phosphate Level” below) in data set [3] was determined as 0.6 nmol/g.

In data set [1], `CCCCCCCCCCCCCCCCCCOC[C@H](COP(=O)(O)OC[C@H]1O[C@@](C#N)(c2ccc3c(N)ncnn23)[C@H](O)[C@@H]1O)Oc1cc(OC)c(C#N)c(OC)c1` [Example 34, ((2R,3S,4R,5R)-5-(4-aminopyrrolo[2,1-f][1,2,4]triazin-7-yl)-5-cyano-3,4-dihydroxytetrahydrofuran-2-yl)methyl ((R)-2-(4-cyano-3,5-dimethoxyphenoxy)-3-(octadecyloxy)propyl) hydrogen phosphate] came in with a half-maximal cytotoxic concentration (CC50) at 5 days of 460 nM. In addition, in the data set “in vitro”, it took 10000 nM to reach half-maximal cytotoxicity (CC50 at 48 h). The EC50 in data set [2] was found to be 11 nM; in the data set with SARS-CoV-2, 43 nM. Also, the “Total Lung Phosphate Level” value in data set [3] came out at 2.4 nmol/g.

Consider `CCCCCCCCCCCCCCCCCCC[C@H](COP(=O)(O)OC[C@H]1O[C@@](C#N)(c2ccc3c(N)ncnn23)[C@H](O)[C@@H]1O)OCc1cc(F)cc(C#N)c1` [Example 35, ((2R,3S,4R,5R)-5-(4-aminopyrrolo[2,1-f][1,2,4]triazin-7-yl)-5-cyano-3,4-dihydroxytetrahydrofuran-2-yl)methyl ((R)-2-((3-cyano-5-fluorobenzyl)oxy)henicosyl) hydrogen phosphate], for which, in data set [1], the CC50 at 5 days turned out to be 830 nM. Also, it took 16000 nM to reach half-maximal cytotoxicity in “in vitro” (CC50 at 48 h). Further, the EC50 is 95 nM in data set [2] and 570 nM with SARS-CoV-2. Moreover, the “Total Lung Phosphate Level” value in data set [3] came out at 2.7 nmol/g.
